# Results reported in patent publication US6569878B1, “Substituted 4-amino-thiazol-2-yl compounds as cyclin-dependent kinase inhibitors” (Agouron Pharmaceuticals Inc., priority 1997, dated 2003).
# pIC50, pKi: −log10 of the molar value. Read-outs that look alike come from different tables or passages of the source.
# Assays:
# [1] = target: T1, complex of cyclin D1 and a fusion protein of human CDK4 and glutathione-S-transferase (GST-CDK4) (Homo sapiens, UniProt P11802); assay: Inhibition of CDK4/cyclin D retinoblastoma kinase activity (D-type cyclin is D1); format: biochemical; details: superscript b: D-type cyclin is D1, read-out: Ki CDK 4/D; for Ki: μM
# T1 construct: made in house; host or cells: insect cells, co-infected with baculovirus
# Procedure: Cyclin-dependent kinase activity was measured by quantifying the enzyme-catalyzed, time-dependent incorporation of radioactive phosphate from [^32P]ATP or [^33P]ATP into a protein substrate. Unless noted otherwise, assays were performed in 96-well plates in a total volume of 50 μL, in the presence of 10 mM HEPES (N-[2-hydroxyethyl]piperazine-N′-[2-ethanesulfonic acid]) (pH 7.4), 10 mM MgCl2, 25 μM adenosine triphosphate (ATP), 1 mg/mL ovalbumin, 5 μg/mL leupeptin, 1 mM dithiothreitol, 10 mM β-glycerophosphate, 0.1 mM sodium vanadate, 1 mM sodium fluoride, 2.5 mM ethylene glycol-bis(β-aminoethyl ether)-N,N,N′N′-tetraacetic acid (EGTA), 2% (v/v) dimethylsulfoxide, and 0.03-0.4 μCi [^32/33P]ATP per reaction. Reactions were initiated with enzyme, incubated at 30° C., and terminated after 20 minutes by the addition of ethylenediaminetetraacetic acid (EDTA) to 250 mM. The phosphorylated substrate was then captured on a nitrocellulose or phosphocellulose membrane using a 96-well filtration manifold, and unincorporated radioactivity was removed by repeated washing with 0.85% phosphoric acid. Radioactivity was quantified by exposing the dried membranes to a phosphorimager.
# Apparent Ki values were measured by assaying enzyme activity in the presence of different inhibitor compound concentrations and subtracting the background radioactivity measured in the absence of enzyme. The kinetic parameters (kcat, Km for ATP) were measured for each enzyme under the usual assay conditions by determining the dependence of initial rates on ATP concentration. Inhibition data were fit to an equation for competitive inhibition using Kaleidagraph (Synergy Software), or were fit to an equation for competitive tight-binding inhibition using the software KineTic (BioKin, Ltd.).
# A complex of human CDK4 and cyclin D3, or a complex of cyclin D1 and a fusion protein of human CDK4 and gluathione-S-transferase (GST-CDK4), or a complex of human CDK4 and genetically truncated (1-264) cyclin D3, was purified using traditional biochemical chromatographic techniques from insect cells that had been co-infected with the corresponding baculovirus expression vectors (see e.g., Meijer and Kim, “Chemical Inhibitors of Cyclin-Dependent Kinases,” Methods in Enzymol,. vol. 283 (1997), pp. 113-128.). The enzyme complex (5 or 50 nM) was assayed with 0.3-0.5 μg of purified recombinant retinoblastoma protein fragment (Rb) as a substrate. The engineered Rb fragment (residues 386-928 of the native retinoblastoma protein; 62.3 kDa) contains the majority of the phosphorylation sites found in the native 106-kDa protein, as well as a tag of six histidine residues for ease of purification. Phosphorylated Rb substrate was captured by microfiltration on a nitrocellulose membrane and quantified using a phosphorimager as described above. For measurement of tight-binding inhibitors, the enzyme complex concentration was lowered to 5 nM, and the assay duration was extended to 60 minutes, during which the time-dependence of product formation was linear.
# CDK2/cyclin A = target: T2, CDK2/cyclin A (Homo sapiens, UniProt P24941); assay: Inhibition of CDK2/cyclin A retinoblastoma kinase activity; format: biochemical; details: read-out: Ki CDK 2/A
# T2 construct: made in house; host or cells: CDK2: insect cells (baculovirus); cyclin A: E. coli, then limited proteolysis
# Summary of the method: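 Baculovirus-expressed CDK2 with excess proteolyzed cyclin A (or purified complex), 150 nM or 5 nM, phosphorylating an Rb fragment with 25 μM [32/33P]ATP, pH 7.4, 30° C, 20 min. Filter-captured radioactivity by phosphorimager; apparent Ki from fits to competitive or tight-binding competitive inhibition using measured ATP Km.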
# [2] = target: T3, human CDK1 (cdc2) and cyclin B (Homo sapiens, UniProt P06493); assay: Inhibition of CDK1(cdc2)/cyclin B histone H1 kinase activity; format: biochemical; details: read-out: Ki CDK 1/B
# T3 construct: purchased New England Biolabs (Beverly Mass.)
# Summary of the method: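 CDK1/cyclin B (commercial, or CDK1/GST-cyclin B1 from co-infected insect cells) phosphorylated histone H1 with 25 μM [32/33P]ATP at pH 7.4, 30° C for 20 min, 2% DMSO. Product captured on phosphocellulose and read by phosphorimager; apparent Ki from competitive or tight-binding fits, with Km for ATP determined.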
# [3] = target: T4, complex of human CDK4 and cyclin D3 (Homo sapiens, UniProt P11802); assay: Inhibition of CDK4/cyclin D retinoblastoma kinase activity (D-type cyclin is D3); format: biochemical; details: superscript a: D-type cyclin is D3, read-out: Ki CDK 4/D; for pKi: apparent Ki
# T4 construct: made in house; host or cells: insect cells, co-infected with baculovirus
# Summary of the method: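 Radiometric assay: [32P]- or [33P]ATP phosphate incorporation into Rb substrate at 30°C for 20 min, stopped with EDTA, filter-captured and phosphorimaged.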
# SW-480 = assay: Inhibition of cell growth, MTT assay, SW-480; format: cell-based; details: Homo sapiens, SW480; SW-480, MTT assay
# Procedure: Inhibition of cell growth was measured using the tetrazolium salt assay, which is based on the ability of viable cells to reduce 3-(4,5-dimethylthiazol-2-yl)-2,5-[2H]-diphenyltetrazolium bromide (MTT) to formazan (Mossman, Journal of Immunological Methods, vol. 65 (1983), pp. 55-58). The water-insoluble purple formazan product was then detected spectrophotometrically. Various cell lines (HCT-116, Saos-2, U2-OS, SW480, COLO-205, RXF-393, M14, MDA-MB-468, and MCF7) were grown in 96-well plates. Cells were plated in the appropriate medium at a volume of 135 μl/well in either McCoy's 5A Medium (for Saos-2, U2-OS, SW480, and HCT-116 cells), RPMI (for COLO-205, RXF-393, M14 cells), or Minimum Essential Medium Eagle (for MDA-MB-468 and MCF7 cells). Plates were incubated for four hours before addition of inhibitor compounds. Different concentrations of inhibitor compounds were added in 0.5% (v/v) dimethylsulfoxide (15 μL/well), and cells were incubated at 37° C. (5% CO2) for four to six days (depending on cell type). At the end of the incubation, MTT was added to a final concentration of 0.2 mg/mL, and cells were incubated for 4 hours more at 37° C. After centrifugation of the plates and removal of medium, the absorbance of the formazan (solubilized in dimethylsulfoxide) was measured at 540 nm. […] All results were compared to control cells treated only with 0.5% (v/v) dimethylsulfoxide.
# HCT116 = assay: Inhibition of cell growth, MTT assay, HCT116; format: cell-based, human; details: Homo sapiens, HCT-116
# Summary of the method: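 Cells rested 4 h after plating, then exposed to graded compound concentrations in 0.5% (v/v) DMSO for four to six days (cell-type dependent) at 37° C, 5% CO2. Viability was read by MTT (0.2 mg/mL final, 4 h at 37° C), with DMSO-solubilized formazan measured at 540 nm.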
# T3 sequence (P06493 whole entry): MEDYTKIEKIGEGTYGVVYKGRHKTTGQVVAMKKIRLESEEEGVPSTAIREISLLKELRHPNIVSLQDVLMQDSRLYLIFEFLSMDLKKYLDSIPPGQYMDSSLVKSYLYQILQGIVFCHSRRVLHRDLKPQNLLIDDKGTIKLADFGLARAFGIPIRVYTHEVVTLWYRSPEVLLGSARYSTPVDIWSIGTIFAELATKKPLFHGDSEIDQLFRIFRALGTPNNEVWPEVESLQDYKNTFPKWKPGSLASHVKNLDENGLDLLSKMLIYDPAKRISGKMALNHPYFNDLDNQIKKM
# T3 sequence (P14635 whole entry partner): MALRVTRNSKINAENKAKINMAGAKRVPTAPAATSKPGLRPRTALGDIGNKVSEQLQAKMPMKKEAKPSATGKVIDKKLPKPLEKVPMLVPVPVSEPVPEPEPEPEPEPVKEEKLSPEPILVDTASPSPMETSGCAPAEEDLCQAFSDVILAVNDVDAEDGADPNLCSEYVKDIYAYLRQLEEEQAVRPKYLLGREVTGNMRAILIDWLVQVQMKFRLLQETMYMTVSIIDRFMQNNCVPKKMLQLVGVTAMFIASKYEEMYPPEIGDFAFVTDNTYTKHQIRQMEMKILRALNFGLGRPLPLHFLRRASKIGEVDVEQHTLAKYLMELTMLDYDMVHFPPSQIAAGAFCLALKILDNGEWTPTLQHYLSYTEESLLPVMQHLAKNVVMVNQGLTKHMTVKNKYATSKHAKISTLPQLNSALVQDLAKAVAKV
# T1 sequence (P11802 whole entry, the tested form may be a part): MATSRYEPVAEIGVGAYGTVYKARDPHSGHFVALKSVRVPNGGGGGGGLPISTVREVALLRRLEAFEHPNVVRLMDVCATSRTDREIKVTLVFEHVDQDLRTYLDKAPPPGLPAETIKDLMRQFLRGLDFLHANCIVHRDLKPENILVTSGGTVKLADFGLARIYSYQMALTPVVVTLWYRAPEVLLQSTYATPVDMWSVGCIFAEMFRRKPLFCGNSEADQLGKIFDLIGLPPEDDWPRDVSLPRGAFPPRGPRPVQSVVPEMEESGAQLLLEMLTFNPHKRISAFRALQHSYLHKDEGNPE
# T1 sequence (P24385 whole entry partner, the tested form may be a part): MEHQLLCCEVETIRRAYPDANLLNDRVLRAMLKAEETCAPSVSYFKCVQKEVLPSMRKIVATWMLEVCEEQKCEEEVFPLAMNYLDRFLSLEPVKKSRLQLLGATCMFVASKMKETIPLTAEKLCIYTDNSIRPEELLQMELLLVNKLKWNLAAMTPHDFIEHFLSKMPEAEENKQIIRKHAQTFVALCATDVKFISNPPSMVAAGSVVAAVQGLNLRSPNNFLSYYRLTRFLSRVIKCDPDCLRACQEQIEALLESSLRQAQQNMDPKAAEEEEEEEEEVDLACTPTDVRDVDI
# T4 sequence (P11802 whole entry): as the sequence (P11802 whole entry, the tested form may be a part) above
# T4 sequence (P30281 whole entry partner): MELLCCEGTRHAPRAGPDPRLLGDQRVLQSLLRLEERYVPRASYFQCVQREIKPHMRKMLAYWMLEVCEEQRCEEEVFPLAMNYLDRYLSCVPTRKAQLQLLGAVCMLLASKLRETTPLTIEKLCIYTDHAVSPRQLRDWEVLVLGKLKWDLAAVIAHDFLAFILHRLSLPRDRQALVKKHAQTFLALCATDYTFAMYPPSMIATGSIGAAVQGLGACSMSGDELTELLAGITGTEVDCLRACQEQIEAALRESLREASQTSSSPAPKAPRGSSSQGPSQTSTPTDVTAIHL
SMILES,Ki [1] [µM],pKi [2],pKi [1],pKi (CDK2/cyclin A),pKi [3],also measured
Nc1nc(Nc2ccccc2)sc1C(=O)C1CC1 [I(4)*],3.1,5.41,,,,Ki (CDK2/cyclin A; μM): 4.3 µM
CC(=O)c1sc(NCc2ccccc2)nc1N [I(3)*],> 100,,,,,Ki ([3]; μM): > 5 µM
CCNc1nc(N)c(C(=O)c2ccccc2)s1 [I(5)*],,5.35,6.06,5.34,5.96,
CC(=O)c1sc(Nc2ccccc2)nc1N [I(2)*],~30,,,5.06,5.10,

# Now from value to compound, other results behind:
Ki [1] [µM],pKi [2],pKi [1],pKi (CDK2/cyclin A),pKi [3],SMILES,also measured
,,6.31,6.05,,"Nc1cccc(C(=O)c2sc(Nc3ccccc3)nc2N)c1 [D(1), (3-Amino-phenyl)-(4-amino-2-phenylamino-thiazol-5-yl)-methanone]",
,,6.11,5.92,6.18,"Nc1nc(Nc2ccccc2)sc1C(=O)c1cccc([N+](=O)[O-])c1 [A(1), (4-Amino-2-phenylamino-thiazol-5-yl)-(3-nitrophenyl)-methanone]",pIC50 (SW-480): 5.40; IC90 (SW-480): 9000 nM; pIC50 (HCT116): 5.60; IC90 (HCT116): 10000 nM
,6.30,6.99,6.34,6.19,Nc1nc(Nc2ccccc2)sc1C(=O)c1ccccc1 [I(1)*],
